Assay results published in patent USRE46604E1, “Treatment of circadian rhythm disorders” (VANDA PHARMACEUTICALS, INC., priority 2012, dated 2017).
Where two headings read alike, the source gives them in different places.

How the values were obtained:
Non-24 patients = test: Entrainment by baseline peak aMT6s and beta blocker status (clinical studies); assay type: in vivo, humans
Protocol: A useful protocol for estimating tau in candidates for clinical testing for treatment of Non-24, which method can be applied to diagnosis of Non-24 in a given patient, is as follows: • Each subject will undergo four 48-hour urine collection sessions at nominal days 7, 14, 21, and 28. During each session, the start of the session and the time of each void will be recorded. Urine collected over periods of 4 hours (with the first 4 hour collection period of the day beginning at scheduled wake time), or about 8 hours during sleep, will be pooled (the “collection interval”); thus, subjects will have a total of 10 urine collection intervals during each 48-hour period. A study nurse will determine the volume of urine collected during each interval (urine will be transferred to a graduated cylinder) and an aliquot will be assayed for aMT6s. • For each collection interval, the start and end time of the interval will be used to determine the midpoint and duration of the interval. The start time of a given interval is defined as the last void time from the prior 4 hour (or 8 hour) collection interval; the end time of a given interval is defined as the last void time within the collection interval. • The mass of the primary melatonin metabolite (aMT6s) excreted during the interval will be determined as the product of aMT6s concentration and volume of urine. Rate of aMT6s excretion will be determined as the mass of aMT6s excreted divided by the duration of the interval. […] For screening there will be occasions when the 4 different weeks that urine collections are conducted will span a change in the clock time. Therefore, all urine collection times will be automatically translated into local standard time for calculations and then translated back to DST for reporting purposes, if appropriate. • In certain situations, urine collections or their recording will be incomplete. The following procedures will be invoked to address this: • 1. If a subject fails to timestamp a void, no action will be taken if there are multiple voids with timestamps within one interval. • 2. If there is only one void in a collection interval, and the patient cannot recall the time of the void then the entire 48 hour collection period will be excluded from the analysis and the subject will be requested to collect an additional 48 hours of urine after Day 28. It would not be possible to accurately determine to which collection interval the unmarked urine belongs. Consequently, the appropriate assignment of start and stop times to all of the collection intervals would be questionable. • 3. If a void is discarded by the patient but the time of the void is known, duration associated with that void (time of the void minus the time of the previous void) will be subtracted from the total duration associated with that interval. This modified duration will be used to calculate rate of aMT6s excretion. If a discarded sample is either the first or last of the samples in an interval, the midpoint of that interval will be calculated without considering that sample. • 4. If fewer than 4 samples are available for one 48-hour collection session, fitting of the cosine will be compromised (inadequate degrees of freedom). Consequently, acrophase will not be determined if fewer than four samples are available. • For each session, acrophase will be determined by fitting a cosine to the data from that session using unweighted non-linear regression. Fitting will be performed using a non-linear least squares fitting algorithm. The fitting process will estimate phase shift, mesor, and amplitude and their respective standard errors; period of the cosine will be fixed to 24 hours.* • Acrophase will be determined as the phase shift modulus 24 hours. • If acrophase values are available for three or more sessions, tau will be calculated using the following procedure: • 1. Acrophase will be recalculated relative to day 0 (24·start day for each session+acrophase). • 2. […]

[1] = Effect of smoking on pharmacokinetics; assay type: in vivo, human; details: for Vd/F: read-out: Vz/F; for half-life: read-out: t½ (converted)
Description: Smokers were defined as those smoking 10 or more cigarettes per day. Non-smokers were defined as those smoking no cigarettes per day.

tmax as stated in text = details: in vivo
MT1R = MT1R (Homo sapiens, UniProt P48039); test: Melatonin receptor MT1R affinity; assay type: binding
MT2R = target: T1, MT2R (Homo sapiens, UniProt P49286); test: Melatonin receptor MT2R affinity; assay type: binding
T1 sequence (P49286 1-362): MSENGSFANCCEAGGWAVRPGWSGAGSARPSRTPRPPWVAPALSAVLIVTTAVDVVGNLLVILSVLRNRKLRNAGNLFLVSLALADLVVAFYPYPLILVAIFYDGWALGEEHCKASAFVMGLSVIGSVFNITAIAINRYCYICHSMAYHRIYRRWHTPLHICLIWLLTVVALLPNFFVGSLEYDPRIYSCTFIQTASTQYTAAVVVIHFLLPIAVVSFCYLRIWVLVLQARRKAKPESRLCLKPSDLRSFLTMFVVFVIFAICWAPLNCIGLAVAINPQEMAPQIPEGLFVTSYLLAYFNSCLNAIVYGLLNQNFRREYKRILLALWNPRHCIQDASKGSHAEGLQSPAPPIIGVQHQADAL

[2] = Fluvoxamine co-administration pharmacokinetic study; assay type: in vivo, human
Protocol: Twenty-four healthy male or female subjects between the ages of 18 and 55 years of age (inclusive) who were non-smokers with a body mass index (BMI) of ≧18 and ≦35 kg/m2 participated in this open-label, single-sequence study conducted at one site. On day 1, subjects were administered 5.667 mg of tasimelteon.

[3] = human, in vivo, Smokers (10 or more cigarettes per day)
[4] = both sexes, human, in vivo, Day 1: 5.667 mg tasimelteon alone
[5] = compared to tasimelteon administered alone
[6] = Smokers (10 or more cigarettes per day)

Chain of MT1R (P48039 whole entry): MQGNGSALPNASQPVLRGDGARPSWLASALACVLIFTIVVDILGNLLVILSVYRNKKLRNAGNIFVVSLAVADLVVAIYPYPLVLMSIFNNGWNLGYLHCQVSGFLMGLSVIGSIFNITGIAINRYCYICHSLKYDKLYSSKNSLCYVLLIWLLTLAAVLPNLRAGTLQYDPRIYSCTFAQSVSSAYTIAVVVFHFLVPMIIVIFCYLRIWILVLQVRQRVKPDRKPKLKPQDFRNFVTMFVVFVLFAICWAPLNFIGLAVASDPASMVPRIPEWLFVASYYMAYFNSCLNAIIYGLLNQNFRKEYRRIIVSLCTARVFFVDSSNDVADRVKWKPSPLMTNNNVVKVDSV

With `CCC(=O)NC[C@@H]1C[C@H]1c1cccc2c1CCO2` (relative stereo) [Tasimelteon, trans-N-[[2-(2,3-dihydrobenzofuran-4-yl)cycloprop-1yl]methyl]propanamide] the “Entrained, percent of patients” value (Non-24 patients; Peak aMT6s <1500 ng/hr) was 41%, the “Non-entrained, percent of patients” value (Non-24 patients; Peak aMT6s <1500 ng/hr) was 59% and the “Entrained, percent of patients” value (Non-24 patients; Peak aMT6s <2000 ng/hr) was 38%. For the same compound, the “Non-entrained, percent of patients” value (Non-24 patients; Peak aMT6s <2000 ng/hr) was 62%, the “Entrained, percent of patients” value (Non-24 patients; Peak aMT6s ≧1500 ng/hr) was 67% and the “Non-entrained, percent of patients” value (Non-24 patients; Peak aMT6s ≧1500 ng/hr) was 33%. For the same compound, the “Entrained, percent of patients” value (Non-24 patients; Peak aMT6s ≧2000 ng/hr) was 85%, the “Non-entrained, percent of patients” value (Non-24 patients; Peak aMT6s ≧2000 ng/hr) was 15% and the “Entrained, percent of patients” value (Non-24 patients; Peak aMT6s: All) was 51%. The “Non-entrained, percent of patients” value (Non-24 patients; Peak aMT6s: All) was 49%, the AUC(0-inf) ([1]; human, in vivo, Non-Smokers) was 389 ± 429 ng·h/mL and the Cmax ([1]; human, in vivo, Non-Smokers) was 239 ± 177 ng/mL. The Tmax ([1]; human, in vivo, Non-Smokers, read-out: Tmax) was 30 min, the Vd/F ([1]; human, in vivo, Non-Smokers) was 133 ± 83 L and the half-life ([1]; human, in vivo, Non-Smokers) was 70.8 ± 27.6 min. For the same compound, the AUC(0-inf) [1, 3] was 205 ± 152 ng·h/mL, the Cmax [1, 3] was 136 ± 59.5 ng/mL and the Tmax ([1]; human, in vivo, Smokers (10 or more cigarettes per day), read-out: Tmax) was 45 min. For the same compound, the Vd/F [1, 3] was 189 ± 94.2 L, the half-life [1, 3] was 59.4 ± 10.8 min and the Tmax (tmax as stated in text) was “approximately one-half”. For the same compound, the Ki (MT1R) was 0.3 to 0.4 nM, the Ki (MT2R) was 0.1 to 0.2 nM and the AUC(0-inf) [2, 4] was 102 ± 61.5 ng·h/mL. The Cmax [2, 4] was 68 ± 28.9 ng/mL, the Tmax [2, 4] was 30 min and the half-life ([2]; both sexes, human, in vivo, Day 1: 5.667 mg tasimelteon alone, read-out: t½ (converted)) was 72 ± 13.2 min. The “increase of AUC0-inf upon co-administration of fluvoxamine” value [2, 5] was “approximately 7 fold” and the “increase of Cmax upon co-administration of fluvoxamine” value [2, 5] was “approximately 2 fold”.
For `CCC(=O)NCC1CC1c1cccc2c1C(O)CO2` (centres unmarked) [M12], the “AUC (inf)” value [1, 6] was 526 ± 193 h x ng/mL and the Tmax [1, 6] was 60 min.
`CCC(=O)NC[C@@H]1CC1c1cccc(O)c1CC(=O)O` (some centres unmarked) [M11] gave an AUC(0-inf) [2, 4] of 104 ± 30 ng·h/mL.
For `CCC(=O)NCC1CC1c1cccc2c1C(O)CO2` (centres unmarked) [M14], the “AUC (inf)” value [1, 6] was 9.45 ± 11.88 h x ng/mL and the Tmax [1, 6] was 45 min.
With `CCC(=O)NC[C@@H]1CC1c1cccc(O)c1CCO` (some centres unmarked) [M9] the AUC(0-inf) [2, 4] was 44.5 ± 17.2 ng·h/mL.
